The values below come from patent publication US20250169500A1, “METHOD AND APPARATUS FOR CONTROLLING WEEDS BY POST-HARVEST TREATMENT OF WEED SEEDS” (BAYER CROPSCIENCE LP, priority 2022, published 2025).

The subject of this assay is Palmer Amaranth. Description: Field treatment of crop residue material with diluted indaziflam suspension concentrate at soybean harvest; Palmer Amaranth infestation in the next growing season. It counts as in vivo. Particulars: about 1 g of indaziflam per hectare of spread crop residue material, applied at the expelling end of the seed pulverizer during harvest; assessed in the next growing season. How it is done:
A crop of soybeans is grown infested with Palmer Amaranth. The soybean crop is grown to harvest and the Palmer amaranth is in the seed stage, just before seed drop. A combine harvester equipped with a follow-along seed pulverizer as described in WO 2009/100500 A is used to harvest the crop. The seed pulverizer is fitted with a liquid applicator at the expelling end to treat crop residue material expelled from the pulverizer with a diluted indaziflam suspension concentrate—before the expelled material touches the ground—such that the combine harvester-pulverizer deposits treated crop residue material such that the land so harvested is treated with about 1 g of indaziflam per hectare of spread crop residue material, without treating the land directly.
In the next growing season, another soybean crop has less than 10% of the volume of Palmer Amaranth compared to the present soybean harvest.

Turning to `Cc1ccc2c(c1)[C@H](Nc1nc(N)nc(C(C)F)n1)[C@@H](C)C2` (mixture of isomers) [indaziflam, 2-N-[(1R,2S)-2,3-dihydro-2,6-dimethyl-1H-inden-1-yl]-6-[(1RS)-1-fluoroethyl]-1,3,5-triazine-2,4-diamine], the “volume of Palmer Amaranth in next season's soybean crop compared to the present soybean harvest” value is “less than 10%”.
